Assay [1] deals with rhythmic bladder voiding contractions. Put plainly: Volume-induced rhythmic bladder voiding contractions in anaesthetized rats. The assay is classed as in vivo, rat. Particulars: Rattus norvegicus, intravenous; for ED (10 min disappearance of contractions): extrapolated dose inducing 10 min of disappearance of the contractions, anaesthetized rats, read-out: ED10 min; for ED50: extrapolated dose inducing a reduction of the number of contractions >30% in 50% of treated rats, read-out: ED50 (frequency). The protocol:
Female Sprague Dawley rats weighing 225-275 g (Crl: CDo BR, Charles River Italia) were used. The animals were housed with free access to food and water and were maintained on a forced 12 h alternating light-dark cycle at 22-24° C. for at least one week, except during the experiment. The activity on the rhythmic bladder voiding contractions was evaluated according to the method of Dray (J. Pharmacol. Methods, 13:157, 1985), with some modifications as in Guarneri (Pharmacol. Res., 27:173, 1993). Briefly, rats were anesthetized by subcutaneous injection of 1.25 g/kg (5 ml/kg) urethane, after which the urinary bladder was catheterized via the urethra using PE 50 polyethylene tubing filled with physiological saline. The catheter was tied in place with a ligature around the external urethral orifice and was connected with conventional pressure transducers (Statham P23 ID/P23 XL). […] The bladder was then filled via the recording catheter by incremental volumes of warm (37° C.) saline until reflex bladder voiding contractions occurred (usually 0.8-1.5 ml). For intravenous (i.v.) injection of bioactive compounds, PE 50 polyethylene tubing filled with physiological saline was inserted into the jugular vein. From the cystometrogram, the number of contractions recorded 15 min before (basal values) and after treatment, as well as the mean amplitude of these contractions (mean height of the peaks in mmHg) was evaluated.
Since most compounds produced an effect that was relatively rapid in onset and led to a complete cessation of bladder contractions, bioactivity was conveniently estimated by measuring the duration of bladder quiescence (i.e., the duration of time during which no contractions occurred). The number of animals tested showing a reduction in the number of contractions >30% of that observed in the basal period was also recorded.
Also computed in this manner were extrapolated doses which induced a reduction of the number of contractions of greater than 30% in 50% of treated rats (ED50, frequency) by the method of Bliss (Bliss C. I., Quart. J. Pharm. Pharmacol. 11, 192-216, 1938). After the suppressive effects of drug injection wore off, the height of the contractile peaks was compared with the height of the peaks previously recorded after the control intravenous administration of vehicle. The potency of the tested compounds (ED50 value: the extrapolated doses inducing a 30% reduction of amplitude of the contractions in 50% of treated rats) was evaluated on a quantal basis by the method of Bliss (Bliss C. I., Quart. J. Pharm. Pharmacol. 11, 192-216, 1938).

Assay [2] has as its target T1, human 5-HT1A serotonergic receptor (Homo sapiens, UniProt P08908).
T1 construct: expressed in transfected cells; host or cells: HeLa
T1 sequence (P08908 1-422): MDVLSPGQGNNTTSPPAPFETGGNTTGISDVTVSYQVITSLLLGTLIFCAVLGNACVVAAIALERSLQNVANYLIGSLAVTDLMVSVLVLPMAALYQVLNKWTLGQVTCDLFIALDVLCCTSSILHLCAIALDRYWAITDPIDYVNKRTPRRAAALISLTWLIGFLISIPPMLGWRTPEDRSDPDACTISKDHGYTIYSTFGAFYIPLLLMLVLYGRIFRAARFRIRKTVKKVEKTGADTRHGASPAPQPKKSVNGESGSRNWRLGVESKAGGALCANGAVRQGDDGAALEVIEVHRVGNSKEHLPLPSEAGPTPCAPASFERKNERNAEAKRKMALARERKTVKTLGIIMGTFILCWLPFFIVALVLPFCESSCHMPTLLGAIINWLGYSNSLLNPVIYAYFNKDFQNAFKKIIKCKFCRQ
Nature of the assay: Radioreceptor binding, recombinant human 5-HT1A receptors ([3H]8-OH-DPAT, HeLa membranes). As to conditions: recombinant human receptor, [3H]8-OH-DPAT; Ki from IC50 by Cheng & Prusoff; read-out: Binding affinity for the 5-HT1A receptor, Ki. The protocol: Genomic clone G-21 coding for the human 5-HT1A serotonergic receptor is stably transfected in a human cell line (HeLa). HeLa cells were grown as monolayers in Dulbecco's modified Eagle's medium (DMEM), supplemented with 10% fetal calf serum and gentamicin ([…]), 5% CO2 at 37° C. Cells were detached from the growth flask at 95% confluence by a cell scraper and were lysed in ice-cold 5 mM Tris and 5 mM EDTA buffer (pH 7.4). Homogenates were centrifuged at 40000×g×20 min and pellets were resuspended in a small volume of ice-cold 5 mM Tris and 5 mM EDTA buffer (pH 7.4) and immediately frozen and stored at −70° C. until use. On the day of experiment, cell membranes were resuspended in binding buffer: 50 mM Tris HCl (pH 7.4), 2.5 mM MgCl2, 10 μM pargiline (Fargin et al., Nature 335, 358-360, 1988). Membranes were incubated in a final volume of 1 ml for 30 min at 30° C. with 0.2-1 nM [3H]8-OH-DPAT, in absence or presence of competing drugs; non-specific binding was determined in the presence of 10 μM 5-HT. The incubation was stopped by addition of ice-cold Tris-HCl buffer and rapid filtration through 0.2% polyethyleneimine pretreated Whatman GF/B or Schleicher & Schuell GF52 filters.
The inhibition of specific binding of the radioligands by the tested drugs was analyzed to estimate the IC50 value by using the non-linear curve-fitting program Allfit (De Lean et al., Am. J. Physiol. 235, E97-E102, 1978). The IC50 value was converted to an affinity constant (Ki) by the equation of Cheng & Prusoff (Cheng, Y. C.; Prusoff, W. H. Biochem. Pharmacol. 22, 3099-3108, 1973).

In the next assay the test system is urinary bladder. Nature of the assay: Cystometric parameters (cystometrogram) in conscious rats. In kind it is in vivo, rat. Particulars: for BVC after treatment / MP after treatment: mean ± S.E.; for change in vivo at 0.3 mg/kg / change in vivo at 1 mg/kg: Rattus norvegicus, iv, 0.25 h, after vs before; for change in vivo at 0.3 mg/kg: i.v. 300 μg/kg; for change in vivo at 1 mg/kg: i.v. 1000 μg/kg. As to the method:
Male Sprague Dawley rats (Crl: CDo BR) weighing 250-350 g were used. The animals were housed with free access to food and water and maintained on a forced 12 h alternating light-dark cycle at 22-24° C. for at least one week, except during performance of the experiment. To quantify urodynamic parameters in conscious rats, cystometrographic studies were performed using procedures previously described (Guarneri et al., Pharmacol. Res., 24:175, 1991). […] An approximately 10 mm long midline incision was made in the shaved and cleaned abdominal wall. The urinary bladder was gently freed from adhering tissues, emptied, and then cannulated, via an incision at the dome, with a polyethylene cannula (Portex PP30), which was permanently sutured with silk thread. The cannula was exteriorized through a subcutaneous tunnel in the retroscapular area, where it was connected with a plastic adapter to avoid the risk of removal by the animal. For intravenous (i.v.) injection of test compounds, a PE 50 polyethylene tubing filled with physiological saline was inserted into the jugular vein and exteriorized in the retroscapular area. The rats were utilized exclusively one day after implantation. On the day of the experiment, the rats were placed in Bollman's cages, after a stabilization period of 20 min, and the free tip of the bladder catheter was connected through a T-shaped tube to a pressure transducer (Bentley T 800/Marb P 82) and to a peristaltic pump (Gilson minipuls 2) for a continuous infusion, at the constant rate of 0.1 ml/min, of saline solution into the urinary bladder. The intraluminal pressure signal during infusion was continuously recorded on a polygraph (Battaglia Rangoni KO 380 with ADCl/T amplifier).
Two urodynamic parameters were evaluated: bladder volume capacity (BVC) and micturition pressure (MP). BVC (in ml) is defined as the minimum volume infused after which detrusor contraction (followed by micturition) occurs. MP (in mm Hg) is defined as the maximal intravesical pressure induced by the contraction of detrusor during micturition. Basal BVC and MP values were calculated as the means of the first two recorded cystometrograms. At this point in the assay, the infusion was interrupted and the test compounds were administered. Fifteen minutes after intravenous administration two additional cystometrograms were recorded in each animal and the mean values of the two cystometrographic parameters were calculated. The statistical significance of the differences in urodynamic parameter values was evaluated by Student's t test for paired data.

Like-named read-outs stand apart in the source and are kept apart here. Some results are limits rather than exact numbers.

In the case of `COc1ccccc1N1CCN(CCN(C(=O)C2CCCCC2)c2ccccc2C#N)CC1.Cl` [Example 43, 1-[N-(2-cyanophenyl)-N-cyclohexylcarbonyl-2-aminoethyl]-4-(2-methoxyphenyl)piperazine Hydrochloride], in assay [1], the ED (10 min disappearance of contractions) was 0.052 mg/kg and the ED50 was 0.004 mg/kg.
On the same counts, the results for `COc1ccccc1N1CCN(CCNc2cccc([N+](=O)[O-])c2)CC1` [Compound D, 1-[N-(3-nitrophenyl)-2-aminoethyl]-4-(2-methoxyphenyl)piperazine, reference compound] are more than 1 mg/kg and more than 1 mg/kg.
Regarding `COc1ccccc1N1CCN(CCNc2ccc([N+](=O)[O-])cc2)CC1` [Compound E, 1-[N-(4-nitrophenyl)-2-aminoethyl]-4-(2-methoxyphenyl)piperazine, reference compound], in assay [1], the ED (10 min disappearance of contractions) was more than 1 mg/kg and the ED50 is more than 1 mg/kg.
For `COc1ccccc1N1CCN(CCNc2ccccc2[N+](=O)[O-])CC1` [Example 1, 1-[N-(2-nitrophenyl)-2-aminoethyl]-4-(2-methoxyphenyl)piperazine], in assay [1], the ED (10 min disappearance of contractions) was 0.192 mg/kg and the ED50 was 0.055 mg/kg.
Turning to `COc1ccccc1N1CCN(CCNc2ccccc2I)CC1` [Example 7, 1-[N-(2-iodophenyl)-2-aminoethyl]-4-(2-methoxyphenyl)piperazine], the Ki in assay [2] was 3.82 nM.
Same read-out and setting: in the case of `COc1ccccc1N1CCN(CCN(C(=O)C2(C)CCCCC2)c2ccccc2[N+](=O)[O-])CC1` [Example 39, 1-[N-(2-nitrophenyl)-N-(1-methylcyclohexylcarbonyl)-2-aminoethyl]-4-(2-methoxyphenyl)piperazine] it was 2.65 nM; in that of `O=[N+]([O-])c1ccccc1NCCN1CCN(c2cccc3[nH]ccc23)CC1` [Example 12, 1-[N-(2-nitrophenyl)-2-aminoethyl]-4-(4-indolyl)piperazine], 4.77 nM.
Same read-out and setting: in the case of `CS(=O)(=O)Nc1ccccc1N(CCN1CCN(c2cccc3[nH]ccc23)CC1)C(=O)C1CCCCC1` [Example 88, 1-[N-cyclohexylcarbonyl-N-(2-methanesulphonylaminophenyl)-2-aminoethyl]-4-(4-indolyl)piperazine] it was 1.03 nM; in that of `FC(F)(F)Oc1ccccc1NCCN1CCN(c2cccc3[nH]ccc23)CC1` [Example 50, 1-[N-(2-trifluoromethoxyphenyl)-2-aminoethyl]-4-(4-indolyl)piperazine], 1.16 nM.
`COc1ccccc1N1CCN(CCN(C(=O)c2ccsc2)c2ccccc2[N+](=O)[O-])CC1` [Example 35, 1-[N-(2-nitrophenyl)-N-(3-thiophenecarbonyl)-2-aminoethyl]-4-(2-methoxyphenyl)piperazine]: the Ki in assay [2] came out at 8 nM.
The same measure, in the same setting: in the case of `FC(F)(F)COc1ccccc1NCCN1CCN(c2cccc3[nH]ccc23)CC1` [Example 68] it was 9.32 nM; in that of `COc1ccccc1N1CCN(CCN(C(=O)C2CCCCC2)c2ccccc2Oc2ccccc2)CC1` [Example 6, 1-[N-(2-phenoxyphenyl)-N-cyclohexylcarbonyl-2-aminoethyl]-4-(2-methoxyphenyl)piperazine], 0.45 nM; in that of `CCNC(=O)c1ccccc1N(CCN1CCN(c2ccccc2OC)CC1)C(=O)C1CCCCC1` [Example 25, 1-[N-(2-ethylaminocarbonylphenyl)-N-cyclohexylcarbonyl-2-aminoethyl]-4-(2-methoxyphenyl)piperazine], 8.91 nM.
In the assay with urinary bladder (15 min after i.v. 300 μg/kg), `COc1ccccc1N1CCN(CCN(C(=O)C2CCCCC2)c2ccccc2I)CC1` [Example 8] registered a BVC after treatment of 0.71 ± 0.05 mL and an MP after treatment of 98.3 ± 17.2 mmHg. In the assay with urinary bladder (15 min after i.v. 1000 μg/kg), this molecule had a BVC after treatment of 0.88 ± 0.12 mL and an MP after treatment of 64.8 ± 10.5 mmHg. In addition, in the assay on urinary bladder (read-out: BVC % of change), the change in vivo at 0.3 mg/kg worked out at 21% and the change in vivo at 1 mg/kg was found to be 35%. Further, in the assay with urinary bladder (read-out: MP % of change), the change in vivo at 0.3 mg/kg is -15% and the change in vivo at 1 mg/kg is -20%. Also, the Ki in assay [2] turned out to be 0.36 nM.
Regarding `COc1ccc(Br)c(CN2CCN(CCN(C(=O)C3CCCCC3)c3ccccc3C#N)CC2)c1` [Example 83, 1-[N-(2-cyanophenyl)-N-cyclohexylcarbonyl-2-aminoethyl]-4-(2-bromo-5-methoxybenzyl)piperazine], the Ki in assay [2] was 1.31 nM.

By ED50 is commonly meant the midpoint of the dose-response relation. By Ki is commonly meant a measure of affinity in units of concentration, obtained from inhibition or displacement.

Values taken from patent US6399614B1, “1-(N-phenylaminoalkyl)piperazine derivatives substituted at position 2 of the phenyl ring” (Recordati S.A. Chemical and Pharmaceutical Company, priority 1997, dated 2002).
